Measurements as given in patent US10487082B2, “S1PR2 antagonists and uses therefor” (DALHOUSIE UNIVERSITY, priority 2015, dated 2019).
“Also recorded” adds a separate entry of the source.

Key:
Fzd4−/− mice = experiment: Retinal vasculature in Fzd4−/− mouse model of FEVR (flat-mounted retinas, iso-lectin B4 staining, confocal microscopy); assay type: in vivo; details: 0.5 mg/kg intraperitoneally every second day from P7 to P25, retinas at P25
Description: FIG. 7 illustrates that treatment of Fzd4^−/− mice with the S1PR2 antagonist JTE-013 ameliorates the FEVR phenotype. Fzd4^−/− mice were injected with 0.5 mg/kg JTE-013 intraperitoneally every second day from P7 to P25. Retinas were flat mounted at P25 and the vasculature visualized by confocal microscopy subsequent to staining with iso-lectin B4 AlexaFluor 594.
Fzd4^−/− mice were injected with 0.5 mg/kg JTE-013 intraperitoneally every second day from P7 to P25. Using standard protocols, retinas were flat mounted at P25 and the vasculature visualized by confocal microscopy subsequent to staining with iso-lectin B4 AlexaFluor 594. (Vascular development in the retina and inner ear: control by Norrin and Frizzled-4, a high-affinity ligand-receptor pair. Xu Q, Wang Y, Dabdoub A, Smallwood P M, Williams J, Woods C, Kelley M W, Jiang L, Tasman W, Zhang K, Nathans J. Cell 116, 883-95 (2004).)

S1PR2 = S1PR2 (Homo sapiens, UniProt O95136); details: cited from earlier work
Sequence of S1PR2 (O95136 whole entry): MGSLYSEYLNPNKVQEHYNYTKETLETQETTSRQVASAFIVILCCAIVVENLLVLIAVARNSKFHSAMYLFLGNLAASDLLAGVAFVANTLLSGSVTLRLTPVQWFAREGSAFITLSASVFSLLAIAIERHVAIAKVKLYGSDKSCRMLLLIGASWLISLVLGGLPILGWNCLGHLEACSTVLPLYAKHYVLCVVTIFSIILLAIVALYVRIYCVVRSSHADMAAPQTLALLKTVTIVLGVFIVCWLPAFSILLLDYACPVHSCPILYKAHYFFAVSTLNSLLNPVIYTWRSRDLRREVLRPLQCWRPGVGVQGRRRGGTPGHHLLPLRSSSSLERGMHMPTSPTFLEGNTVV

Cc1nn(C)c2nc(NNC(=O)Nc3cc(Cl)nc(Cl)c3)cc(C(C)C)c12 [JTE-013, 1-(2,6-dichloro-4-pyridyl)-3-[(4-isopropyl-1,3-dimethyl-pyrazolo[3,4-b]pyridin-6-yl)amino]urea]
retinal vascular patterning / FEVR retinal vascularization defects (Fzd4−/− mice): substantial restoration of normal retinal vascular patterning; also recorded: able to ameliorate FEVR retinal vascularization defects
affinity for S1PR2 (S1PR2): 18 nM
specificity for S1PR2 versus other S1PRs (S1PR2): 100 fold
